Data: ChEMBL document CHEMBL1123460, “Synthesis and biochemical properties of 8-amino-6-fluoro-9-beta-D-ribofuranosyl-9H-purine” (J Med Chem, 1986)

Assays:
HEp-2 = assay: Compound was evaluated for the cytotoxicity against H.Ep.-2 cells.; type: functional, cell-based; conditions: Homo sapiens
[1] = Compound was evaluated for the apparent Km value.; type: ADME
L1210 [2] = assay: Compound was evaluated for the cytotoxicity against L1210 cells.; type: functional, cell-based; conditions: Mus musculus
L1210 [3] = assay: Compound was evaluated for the cytotoxicity against L1210 cells in absence of coformycin; type: functional, cell-based; conditions: Mus musculus
L1210 [4] = assay: Compound was evaluated for the cytotoxicity against L1210 cells in presence of coformycin; type: functional, cell-based; conditions: Mus musculus

| Km [1] [µM] | SMILES | IC50 (HEp-2) [nM] | IC50 (L1210 [2]) [nM] | IC50 (L1210 [3]) [nM] | IC50 (L1210 [4]) [nM] |
| --- | --- | --- | --- | --- | --- |
| 1000 | Nc1nc2c(F)ncnc2n1C1O[C@H](CO)[C@@H](O)[C@H]1O (stereo partly specified) | 1800 | 1900 | – | – |
| 29 | Nc1ncnc2c1ncn2[C@@H]1O[C@H](CO)[C@@H](O)[C@H]1O [ADENOSINE] | – | – | – | – |
| – | OC[C@H]1O[C@@H](n2cnc3c2N=CNC[C@H]3O)C[C@@H]1O [PENTOSTATIN] | – | – | 1900 | 250 |
